Test: xn = mol fraction of the nth substance listed
Conditions: 101 kPa

CC(=O)[O-].CC[n+]1ccn(C)c1 + CCO
viscosity [mPa·s]
Conditions	298.15 K	313.15 K	328.15 K	343.15 K
x2 = 0	132.9	57.7	–	18.1
x2 = 0.1059	92.3	–	24.1	–
x2 = 0.1638	75	36.9	21.14	13.51
x2 = 0.2471	54.2	–	17.22	11.24
x2 = 0.3504	35.2	20.3	12.77	–
x2 = 0.4165	26.5	16.06	10.47	–
x2 = 0.4824	19.82	12.48	8.44	6.05
x2 = 0.5572	14.11	–	6.48	4.76
x2 = 0.6646	8.27	5.79	4.27	3.27
x2 = 0.7494	5.35	–	2.96	2.33
x2 = 0.8666	–	2.02	1.59	1.28

CCO + CC(=O)[O-].CC[n+]1ccn(C)c1
x1 = 1
Conditions	viscosity [mPa·s]
298.15 K	1.09
313.15 K	0.83
328.15 K	0.64
343.15 K	0.5

O + CC[n+]1ccn(C)c1.N#C[N-]C#N
Conditions	viscosity [mPa·s]
298.15 K, x1 = 1	0.89

CCO + CC[n+]1ccn(C)c1.N#C[N-]C#N
x1 = 1
Conditions	viscosity [mPa·s]
298.15 K	1.09
343.15 K	0.5

CC[n+]1ccn(C)c1.N#C[N-]C#N + O
viscosity [mPa·s]
Conditions	298.15 K	313.15 K	328.15 K	343.15 K
x2 = 0	–	10.07	7.26	–
x2 = 0.1299	12.78	8.71	6.33	4.84
x2 = 0.2248	–	–	5.65	4.34
x2 = 0.3042	–	7.04	5.11	3.94
x2 = 0.4308	–	5.8	4.3	3.33
x2 = 0.5429	6.96	4.81	3.58	2.78
x2 = 0.6534	5.41	3.81	2.84	2.23
x2 = 0.7355	4.41	3.11	2.32	1.8
x2 = 0.7944	–	2.56	–	1.48
x2 = 0.8803	–	–	1.31	1.04
x2 = 0.953	1.47	–	0.82	0.66

CC[n+]1ccn(C)c1.N#C[N-]C#N + CCO
viscosity [mPa·s]
Conditions	298.15 K	313.15 K	328.15 K	343.15 K
x2 = 0	14.9	–	–	5.48
x2 = 0.102	12.69	8.69	6.32	4.85
x2 = 0.1981	10.8	7.53	5.5	–
x2 = 0.279	9.27	6.58	4.86	3.81
x2 = 0.3596	7.85	–	–	3.37
x2 = 0.4741	6.04	4.45	3.47	2.76
x2 = 0.6028	–	3.31	2.59	2.13
x2 = 0.6867	3.47	2.65	2.09	1.7
x2 = 0.7678	–	2.1	1.67	1.37
x2 = 0.8503	2.08	1.63	1.3	1.1
x2 = 0.9327	1.53	1.19	0.93	0.75

O + CC(=O)[O-].CC[n+]1ccn(C)c1
x1 = 1
Conditions	viscosity [mPa·s]
328.15 K	0.51
343.15 K	0.41

CC(=O)[O-].CC[n+]1ccn(C)c1 + O
viscosity [mPa·s]
Conditions	298.15 K	313.15 K	328.15 K	343.15 K
x2 = 0	–	57.7	30.3	18.1
x2 = 0.0992	–	49.5	–	16.46
x2 = 0.222	89.2	42.3	23.49	–
x2 = 0.3233	73	36	20.48	13.21
x2 = 0.4207	–	30.2	–	11.11
x2 = 0.5408	–	–	13.85	–
x2 = 0.6135	–	19.09	11.44	7.48
x2 = 0.6805	28.8	15.63	–	–
x2 = 0.7482	21.9	11.99	7.32	4.87
x2 = 0.8134	15.44	8.51	–	3.57
x2 = 0.9067	6.16	3.74	2.54	1.81
